Assay results taken from patent publication US20260355323A1, “CEREBLON-RECRUITING BCL-XL/BCL-2 DUAL DEGRADERS” (University of Florida Research Foundation, Incorporated, priority 2022, published 2026).

Columns and labels:
[1] = tested on: MOLT-4 acute lymphoblastic leukemia cells; experiment: Cell viability, tetrazolium-based MTS assay, MOLT-4; settings: Homo sapiens, MOLT-4, 48 h; read-out: Anti-Cancer Activity EC50 (48 hr), MOLT-4
Method: (§1) Acute lymphoblastic leukemia cells (MOLT-4 and RS4;11) were incubated with increasing concentrations of Bcl-xL/Bcl-2 degraders for 48 h. Cell viability was measured by tetrazolium-based MTS assay.

[2] = tested on: RS4;11 acute lymphoblastic leukemia cells; experiment: Cell viability, tetrazolium-based MTS assay, RS4;11; settings: Homo sapiens, RS4;11, 48 h, read-out: Anti-Cancer Activity EC50 (48 hr), RS4
Method: as §1

[3] = tested on: WI-38 irradiation-induced senescent cells (IR-SC); experiment: Senolytic activity, cell viability (PrestoBlue HS), WI-38 IR-SC; assay type: cell-based; settings: Homo sapiens, 72 h
Method: (§2) To induce senescence in WI-38 and HUVEC, cells were subjected to x-ray irradiation at 20 Gray using X-RAD 320 biological irradiator. Following between 10 to 15 days after irradiation, senescence was induced in cells, and irradiation-induced senescent cells (IR-SC) were then used for cell viability and Western blotting tests.
(§3) WI-38 and HUVEC cells were incubated with increasing concentrations of degraders for 72 h. Cell viability was measured using PrestoBlue HS cell viability reagent.

WI-38 NC = experiment: Senolytic activity, cell viability (PrestoBlue HS), WI-38 NC; assay type: cell-based; settings: Homo sapiens, 72 h
Method: as §3

Bcl-xL [4] = biological target: T1, Bcl-xL (Homo sapiens, UniProt Q07817); experiment: Bcl-xL protein degradation in Jurkat cells (immunoblot); assay type: cell-based; settings: 16 h
T1 construct: immunoblot after 16 h degrader treatment
Method: (§4) Jurkat and Hela cells were incubated with increasing concentrations of test compounds for 16 h. The cells were harvested and lysed in RIPA lysis buffer supplemented with protease and phosphatase inhibitor cocktails. An equal amount of protein (20 μg/lane) was resolved on a pre-cast 4-20% SDS-PAGE gel. Proteins were subsequently transferred to NOVEX PVDF membranes by electrophoresis. The membranes were blocked in blocking buffer (5% non-fat dry milk in TBS-T), and incubated with primary antibodies (at optimized concentrations) overnight at 4° C. After three washings in TBS-T, the membranes were incubated with an appropriate FIRP-conjugated secondary antibody for 1 h at room temperature. After extensive washing for three times, the proteins of interest were detected with ECL western blotting detection reagents and recorded with autoradiography (Pierce Biotech, Rockford, IL, USA). The primary antibodies for Bcl-xL (Cat #2762), Bcl-2 (Cat #2872), Bcl-w (Cat #2724) and β-actin (Cat #4970) were purchased from Cell Signaling Technology. The relative band intensity was measured using ImageJ software and normalized to β-actin.

Bcl-xL [5] = biological target: T1, Bcl-xL; experiment: Bcl-xL protein degradation in Hela cells (immunoblot); assay type: cell-based; settings: 16 h
Method: as §4

[6] = tested on: HUVEC irradiation-induced senescent cells (IR-SC); experiment: Senolytic activity, cell viability (PrestoBlue HS), HUVEC IR-SC; assay type: cell-based; settings: Homo sapiens, 72 h
Method: as §2, §3

T1 sequence (Q07817 whole entry): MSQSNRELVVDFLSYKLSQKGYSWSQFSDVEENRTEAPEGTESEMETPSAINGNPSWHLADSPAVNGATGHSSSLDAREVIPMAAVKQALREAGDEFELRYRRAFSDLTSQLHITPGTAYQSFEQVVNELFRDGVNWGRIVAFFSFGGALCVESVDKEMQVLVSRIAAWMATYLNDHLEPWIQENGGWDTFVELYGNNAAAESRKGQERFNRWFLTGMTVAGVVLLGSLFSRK
T1 sequence (Q96SW2 whole entry partner): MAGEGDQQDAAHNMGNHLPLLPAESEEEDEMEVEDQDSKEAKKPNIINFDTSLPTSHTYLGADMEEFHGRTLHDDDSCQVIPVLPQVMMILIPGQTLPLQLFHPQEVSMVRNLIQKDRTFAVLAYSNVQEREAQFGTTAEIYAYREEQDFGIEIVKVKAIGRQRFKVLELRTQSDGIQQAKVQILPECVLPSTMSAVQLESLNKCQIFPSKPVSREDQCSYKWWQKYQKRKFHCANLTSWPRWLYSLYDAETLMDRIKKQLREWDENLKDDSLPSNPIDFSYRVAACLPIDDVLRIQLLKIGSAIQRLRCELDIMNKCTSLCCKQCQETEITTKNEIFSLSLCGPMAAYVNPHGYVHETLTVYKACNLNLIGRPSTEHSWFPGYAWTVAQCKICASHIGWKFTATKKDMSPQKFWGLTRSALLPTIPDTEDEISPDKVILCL

Row | SMILES | EC50 [1] [nM] | EC50 [2] [nM] | EC50 [3] [nM] | EC50 (WI-38 NC) [nM] | degradation of Bcl-xL (Bcl-xL [4]) | degradation of Bcl-xL (Bcl-xL [5]) | EC50 [6] [nM]
1 | C[C@@]1(CN2CCN(C(=O)CN3CCN(c4ccc5c(c4)CN(C4CCC(=O)NC4=O)C5=O)CC3)CC2)CCC(c2ccc(Cl)cc2)=C(CN2CCN(c3ccc(C(=O)NS(=O)(=O)c4ccc(N[C@H](CCN5CCCOCC5)CSc5ccccc5)c(S(=O)(=O)C(F)(F)F)c4)cc3)CC2)C1 (stereo partly drawn) [Compound 1, N-((4-(((R)-4-(1,4-oxazepan-4-yl)-1-(phenylthio)butan-2-yl)amino)-3-((trifluoromethyl)sulfonyl)phenyl)sulfonyl)-4-(4-(((4R)-4′-chloro-4-((4-(2-(4-(2-(2,6-dioxopiperidin-3-yl)-1-oxoisoindolin-5-yl)piperazin-1-yl)acetyl)piperazin-1-yl)methyl)-4-methyl-3,4,5,6-tetrahydro-[1,1′-biphenyl]-2-yl)methyl)piperazin-1-yl)benzamide] | < 1 | < 1 | 1 to 10 | > 10000 | degrade Bcl-xL in a dose-dependent manner | degrade Bcl-xL in a dose-dependent manner | –
2 | C[C@@]1(CN2CCN(C(=O)CN3CCN(CC#Cc4ccc5c(c4)CN(C4CCC(=O)NC4=O)C5=O)CC3)CC2)CCC(c2ccc(Cl)cc2)=C(CN2CCN(c3ccc(C(=O)NS(=O)(=O)c4ccc(N[C@H](CCN5CCCOCC5)CSc5ccccc5)c(S(=O)(=O)C(F)(F)F)c4)cc3)CC2)C1 (stereo partly drawn) [Compound 4, N-((4-(((R)-4-(1,4-oxazepan-4-yl)-1-(phenylthio)butan-2-yl)amino)-3-((trifluoromethyl)sulfonyl)phenyl)sulfonyl)-4-(4-(((4R)-4′-chloro-4-((4-(2-(4-(3-(2-(2,6-dioxopiperidin-3-yl)-1-oxoisoindolin-5-yl)prop-2-yn-1-yl)piperazin-1-yl)acetyl)piperazin-1-yl)methyl)-4-methyl-3,4,5,6-tetrahydro-[1,1′-biphenyl]-2-yl)methyl)piperazin-1-yl)benzamide] | < 1 | < 1 | 1 to 10 | > 10000 | degrade Bcl-xL in a dose-dependent manner | degrade Bcl-xL in a dose-dependent manner | –
3 | C[C@@]1(CN2CCC(CN3CCC(CN4CCN(c5ccc6c(c5)CN(C5CCC(=O)NC5=O)C6=O)CC4)CC3)CC2)CCC(c2ccc(Cl)cc2)=C(CN2CCN(c3ccc(C(=O)NS(=O)(=O)c4ccc(N[C@H](CCN5CCCOCC5)CSc5ccccc5)c(S(=O)(=O)C(F)(F)F)c4)cc3)CC2)C1 (stereo partly drawn) [Compound 12, N-((4-(((R)-4-(1,4-oxazepan-4-yl)-1-(phenylthio)butan-2-yl)amino)-3-((trifluoromethyl)sulfonyl)phenyl)sulfonyl)-4-(4-(((4R)-4′-chloro-4-((4-((4-((4-(2-(2,6-dioxopiperidin-3-yl)-1-oxoisoindolin-5-yl)piperazin-1-yl)methyl)piperidin-1-yl)methyl)piperidin-1-yl)methyl)-4-methyl-3,4,5,6-tetrahydro-[1,1′-biphenyl]-2-yl)methyl)piperazin-1-yl)benzamide] | < 1 | < 1 | 10 to 100 | > 10000 | degrade Bcl-xL in a dose-dependent manner | degrade Bcl-xL in a dose-dependent manner | –
4 | CC1(CN2CCN(C(=O)CN3CCN(C(=O)COCCNc4cccc5c4C(=O)N(C4CCC(=O)NC4=O)C5=O)CC3)CC2)CCC(c2ccc(Cl)cc2)=C(CN2CCN(c3ccc(C(=O)NS(=O)(=O)c4ccc(N[C@H](CCN5CCOCC5)CSc5ccccc5)c(S(=O)(=O)C(F)(F)F)c4)cc3)CC2)C1 (stereo partly drawn) [Compound 15, 4-(4-((4′-chloro-4-((4-(2-(4-(2-(2-((2-(2,6-dioxopiperidin-3-yl)-1,3-dioxoisoindolin-4-yl)amino)ethoxy)acetyl)piperazin-1-yl)acetyl)piperazin-1-yl)methyl)-4-methyl-3,4,5,6-tetrahydro-[1,1′-biphenyl]-2-yl)methyl)piperazin-1-yl)-N-((4-(((R)-4-morpholino-1-30 (phenylthio)butan-2-yl)amino)-3-((trifluoromethyl)sulfonyl)phenyl)sulfonyl)benzamide] | < 1 | < 1 | 10000 to 100000 | > 10000 | – | – | –
5 | CC1(CN2CCN(C(=O)CN3CCN(C(=O)CNc4cccc5c4C(=O)N(C4CCC(=O)NC4=O)C5=O)CC3)CC2)CCC(c2ccc(Cl)cc2)=C(CN2CCN(c3ccc(C(=O)NS(=O)(=O)c4ccc(N[C@H](CCN5CCOCC5)CSc5ccccc5)c(S(=O)(=O)C(F)(F)F)c4)cc3)CC2)C1 (stereo partly drawn) [Compound 16, 4-(4-((4′-chloro-4-((4-(2-(4-((2-(2,6-dioxopiperidin-3-yl)-1,3-dioxoisoindolin-4-yl)glycyl)piperazin-1-yl)acetyl)piperazin-1-yl)methyl)-4-methyl-3,4,5,6-tetrahydro-[1,1′-biphenyl]-2-yl)methyl)piperazin-1-yl)-N-((4-(((R)-4-morpholino-1-(phenylthio)butan-2-yl)amino)-3-((trifluoromethyl)sulfonyl)phenyl)sulfonyl)benzamide] | < 1 | < 1 | 10 to 100 | > 10000 | – | – | –
6 | CC1(CN2CCN(C(=O)CN3CCN(C(=O)COc4cccc5c4C(=O)N(C4CCC(=O)NC4=O)C5=O)CC3)CC2)CCC(c2ccc(Cl)cc2)=C(CN2CCN(c3ccc(C(=O)NS(=O)(=O)c4ccc(N[C@H](CCN5CCOCC5)CSc5ccccc5)c(S(=O)(=O)C(F)(F)F)c4)cc3)CC2)C1 (stereo partly drawn) [Compound 18, 4-(4-((4′-chloro-4-((4-(2-(4-(2-((2-(2,6-dioxopiperidin-3-yl)-1,3-dioxoisoindolin-4-yl)oxy)acetyl)piperazin-1-yl)acetyl)piperazin-1-yl)methyl)-4-methyl-3,4,5,6-tetrahydro-[1,1′-biphenyl]-2-yl)methyl)piperazin-1-yl)-N-((4-(((R)-4-morpholino-1-(phenylthio)butan-2-yl)amino)-3-((trifluoromethyl)sulfonyl)phenyl)sulfonyl)benzamide] | < 1 | < 1 | 10 to 100 | > 10000 | – | – | –
7 | C[C@@]1(CN2CCN(c3ccc4c(c3)C(=O)N(C3CCC(=O)NC3=O)C4)CC2)CCC(c2ccc(Cl)cc2)=C(CN2CCN(c3ccc(C(=O)NS(=O)(=O)c4ccc(N[C@H](CCN5CCCOCC5)CSc5ccccc5)c(S(=O)(=O)C(F)(F)F)c4)cc3)CC2)C1 (stereo partly drawn) [Compound 133, N-((4-(((R)-4-(1,4-oxazepan-4-yl)-1-(phenylthio)butan-2-yl)amino)-3-((trifluoromethyl)sulfonyl)phenyl)sulfonyl)-4-(4-(((4R)-4′-chloro-4-((4-(2-(2,6-dioxopiperidin-3-yl)-3-oxoisoindolin-5-yl)piperazin-1-yl)methyl)-4-methyl-3,4,5,6-tetrahydro-[1,1′-biphenyl]-2-yl)methyl)piperazin-1-yl)benzamide] | < 1 | 1 to 10 | 10 to 100 | – | – | – | < 1
8 | C[C@@]1(CN2CCC(CN3CCN(c4ccc(NC5CCC(=O)NC5=O)cc4F)CC3)CC2)CCC(c2ccc(Cl)cc2)=C(CN2CCN(c3ccc(C(=O)NS(=O)(=O)c4ccc(N[C@H](CCN5CCCOCC5)CSc5ccccc5)c(S(=O)(=O)C(F)(F)F)c4)cc3)CC2)C1 (stereo partly drawn) [Compound 141, N-((4-(((R)-4-(1,4-oxazepan-4-yl)-1-(phenylthio)butan-2-yl)amino)-3-((trifluoromethyl)sulfonyl)phenyl)sulfonyl)-4-(4-(((4R)-4′-chloro-4-((4-((4-(4-((2,6-dioxopiperidin-3-yl)amino)-2-fluorophenyl)piperazin-1-yl)methyl)piperidin-1-yl)methyl)-4-methyl-3,4,5,6-tetrahydro-[1,1′-biphenyl]-2-yl)methyl)piperazin-1-yl)benzamide] | 1 to 10 | 1 to 10 | 1 to 10 | > 10000 | – | – | < 1
